Patent US20240218079A1, “PLASMA KALLIKREIN ANTIBODIES AND USES THEREOF” (Astria Therapeutics, Inc., priority 2021, published 2024)
Where a name gives a salt, the structure may show the parent alone. Read-outs that look alike come from different tables or passages of the source. Peptide text beside a SMILES is read from it.

What was measured:
Assay type in all cases: biochemical
Urokinase = Urokinase (Homo sapiens, UniProt P00749); test: Serine protease inhibition assay: Urokinase; settings: control compound, 10-dose 3-fold serial dilution starting at 10 μM or 100 uM
Description: (§1) Control compounds were tested in a 10-dose assay with 3-fold serial dilution starting at 10 μM or 100 uM (tPA, Matriptase 2, Kallikrein 5, Kallikrein 2, Kallikrein 1, Granzyme B, and APC). The protease activities were monitored as a time-course measurement of the increase in fluorescence signal from a fluorescently-labeled peptide substrate, and the initial linear portion of the signal slope (signal/min) was analyzed. % Enzyme activity for antibody titrations were calculated respective to vehicle controls in presence of PBS buffer as 100% Activity.
(§2) Empty cells indicate no inhibition or compound activity that could not be fit to an IC50 curve. The IC50 value higher than 1 μM was estimated based on the best curve fitting available.

Kallikrein 2 = Kallikrein 2 (Homo sapiens, UniProt P20151); test: Serine protease inhibition assay: Kallikrein 2; settings: control compound, 10-dose 3-fold serial dilution starting at 10 μM or 100 uM
Chain of Kallikrein 2 (P20151 25-261, species assumed): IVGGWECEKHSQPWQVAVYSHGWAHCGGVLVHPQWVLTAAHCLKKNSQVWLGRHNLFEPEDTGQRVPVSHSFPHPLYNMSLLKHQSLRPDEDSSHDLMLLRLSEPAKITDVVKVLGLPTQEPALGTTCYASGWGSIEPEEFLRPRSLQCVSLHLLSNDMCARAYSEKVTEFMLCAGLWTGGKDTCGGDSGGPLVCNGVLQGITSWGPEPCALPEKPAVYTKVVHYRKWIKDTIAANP
Description: as §1, §2

Matriptase 2 = target: T1, Matriptase 2 (Homo sapiens, UniProt Q8IU80); test: Serine protease inhibition assay: Matriptase 2; settings: control compound, 10-dose 3-fold serial dilution starting at 10 μM or 100 uM
T1 sequence (Q8IU80 1-811): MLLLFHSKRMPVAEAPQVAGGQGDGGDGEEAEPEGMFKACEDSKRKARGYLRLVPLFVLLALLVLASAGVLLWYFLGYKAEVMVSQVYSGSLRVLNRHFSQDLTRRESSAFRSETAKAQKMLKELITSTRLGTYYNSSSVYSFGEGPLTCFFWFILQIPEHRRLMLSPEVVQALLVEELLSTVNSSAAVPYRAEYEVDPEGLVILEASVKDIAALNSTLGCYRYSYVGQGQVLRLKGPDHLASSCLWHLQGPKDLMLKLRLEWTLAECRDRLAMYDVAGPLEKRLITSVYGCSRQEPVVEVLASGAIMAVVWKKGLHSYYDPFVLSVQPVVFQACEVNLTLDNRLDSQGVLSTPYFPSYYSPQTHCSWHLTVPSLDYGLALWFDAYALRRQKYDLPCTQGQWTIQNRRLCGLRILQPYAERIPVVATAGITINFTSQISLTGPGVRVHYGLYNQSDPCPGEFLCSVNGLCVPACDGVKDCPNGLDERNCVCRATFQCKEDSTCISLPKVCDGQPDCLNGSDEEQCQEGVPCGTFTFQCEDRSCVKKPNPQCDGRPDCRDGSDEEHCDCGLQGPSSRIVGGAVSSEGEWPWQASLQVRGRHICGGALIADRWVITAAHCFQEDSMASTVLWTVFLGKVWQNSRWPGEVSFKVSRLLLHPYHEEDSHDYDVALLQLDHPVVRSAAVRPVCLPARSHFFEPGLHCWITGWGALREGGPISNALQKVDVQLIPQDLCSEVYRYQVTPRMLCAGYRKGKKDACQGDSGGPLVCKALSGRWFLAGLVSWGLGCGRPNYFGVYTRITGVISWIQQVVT
Description: as §1, §2

Plasmin = Plasmin (Homo sapiens, UniProt P00747); test: Serine protease inhibition assay: Plasmin; settings: control compound, 10-dose 3-fold serial dilution starting at 10 μM or 100 uM
Chain of Plasmin (P00747 581-810 limits assumed, species assumed): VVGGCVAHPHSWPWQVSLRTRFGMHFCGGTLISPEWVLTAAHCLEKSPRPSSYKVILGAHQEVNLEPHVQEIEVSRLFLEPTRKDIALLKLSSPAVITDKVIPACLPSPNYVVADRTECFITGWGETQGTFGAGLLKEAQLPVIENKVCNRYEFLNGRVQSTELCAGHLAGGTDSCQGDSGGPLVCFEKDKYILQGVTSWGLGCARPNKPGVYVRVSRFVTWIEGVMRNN
Chain of Plasmin (P00747 97-580 limits assumed, species assumed): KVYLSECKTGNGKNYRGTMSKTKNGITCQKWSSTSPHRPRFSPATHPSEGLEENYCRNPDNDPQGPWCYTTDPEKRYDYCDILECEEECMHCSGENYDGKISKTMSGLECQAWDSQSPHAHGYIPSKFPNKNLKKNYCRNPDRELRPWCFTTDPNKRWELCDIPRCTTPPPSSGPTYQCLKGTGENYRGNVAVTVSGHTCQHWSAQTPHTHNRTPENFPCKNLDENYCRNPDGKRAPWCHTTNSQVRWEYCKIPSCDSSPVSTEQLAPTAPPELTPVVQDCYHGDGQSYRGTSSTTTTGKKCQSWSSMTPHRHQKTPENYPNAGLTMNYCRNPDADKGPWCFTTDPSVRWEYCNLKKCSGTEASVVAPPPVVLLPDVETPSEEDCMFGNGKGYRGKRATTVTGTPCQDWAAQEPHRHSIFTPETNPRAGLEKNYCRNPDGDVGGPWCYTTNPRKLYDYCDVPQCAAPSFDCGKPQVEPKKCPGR
Description: as §1, §2

tPA = tPA (Homo sapiens, UniProt P00750); test: Serine protease inhibition assay: tPA; settings: control compound, 10-dose 3-fold serial dilution starting at 10 μM or 100 uM
Chain of tPA (P00750 36-562, species assumed): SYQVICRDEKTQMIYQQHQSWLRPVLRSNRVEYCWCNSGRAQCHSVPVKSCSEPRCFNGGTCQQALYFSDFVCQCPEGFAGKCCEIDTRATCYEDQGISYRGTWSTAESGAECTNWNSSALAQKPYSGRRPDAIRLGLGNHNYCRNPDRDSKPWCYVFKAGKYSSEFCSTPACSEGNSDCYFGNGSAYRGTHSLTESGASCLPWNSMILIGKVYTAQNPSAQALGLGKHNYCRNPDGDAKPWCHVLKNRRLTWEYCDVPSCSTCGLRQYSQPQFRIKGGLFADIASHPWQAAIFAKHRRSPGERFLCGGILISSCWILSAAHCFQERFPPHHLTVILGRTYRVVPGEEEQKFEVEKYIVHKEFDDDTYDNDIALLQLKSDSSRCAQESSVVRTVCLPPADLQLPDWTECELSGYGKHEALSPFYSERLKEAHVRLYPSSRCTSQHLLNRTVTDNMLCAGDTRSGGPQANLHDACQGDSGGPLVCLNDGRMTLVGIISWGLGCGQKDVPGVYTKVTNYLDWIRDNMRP
Description: as §1, §2

Kallikrein 5 = target: T2, Kallikrein 5 (Homo sapiens, UniProt Q9Y337); test: Serine protease inhibition assay: Kallikrein 5; settings: control compound, 10-dose 3-fold serial dilution starting at 10 μM or 100 uM
T2 sequence (Q9Y337 23-293): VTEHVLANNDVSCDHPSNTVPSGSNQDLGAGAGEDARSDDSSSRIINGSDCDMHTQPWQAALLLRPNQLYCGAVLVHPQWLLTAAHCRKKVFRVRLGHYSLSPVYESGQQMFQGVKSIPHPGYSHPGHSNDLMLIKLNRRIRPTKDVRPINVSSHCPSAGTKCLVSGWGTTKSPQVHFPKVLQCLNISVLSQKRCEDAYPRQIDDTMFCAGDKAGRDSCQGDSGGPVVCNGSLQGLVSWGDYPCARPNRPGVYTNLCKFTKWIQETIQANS
Description: as §1, §2

Activated Protein C = Activated Protein C (Homo sapiens, UniProt P04070); test: Serine protease inhibition assay: Activated Protein C; settings: control compound, 10-dose 3-fold serial dilution starting at 10 μM or 100 uM
Chain of Activated Protein C (P04070 212-461 limits assumed): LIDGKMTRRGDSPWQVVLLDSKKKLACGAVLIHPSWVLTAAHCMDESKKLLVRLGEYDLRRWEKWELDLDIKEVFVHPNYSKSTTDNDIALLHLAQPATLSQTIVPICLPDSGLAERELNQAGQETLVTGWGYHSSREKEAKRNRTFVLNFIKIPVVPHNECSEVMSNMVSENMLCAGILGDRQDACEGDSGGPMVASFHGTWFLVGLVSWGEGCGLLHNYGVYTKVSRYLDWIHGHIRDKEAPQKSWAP
Chain of Activated Protein C (P04070 43-197 limits assumed): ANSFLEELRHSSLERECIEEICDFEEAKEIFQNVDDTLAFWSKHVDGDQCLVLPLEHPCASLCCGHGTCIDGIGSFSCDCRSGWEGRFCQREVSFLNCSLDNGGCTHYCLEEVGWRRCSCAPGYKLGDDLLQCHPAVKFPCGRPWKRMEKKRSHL
Description: as §1, §2

Kallikrein 12 = target: T3, Kallikrein 12 (Homo sapiens, UniProt Q9UKR0); test: Serine protease inhibition assay: Kallikrein 12; settings: control compound, 10-dose 3-fold serial dilution starting at 10 μM or 100 uM
T3 sequence (Q9UKR0 18-248): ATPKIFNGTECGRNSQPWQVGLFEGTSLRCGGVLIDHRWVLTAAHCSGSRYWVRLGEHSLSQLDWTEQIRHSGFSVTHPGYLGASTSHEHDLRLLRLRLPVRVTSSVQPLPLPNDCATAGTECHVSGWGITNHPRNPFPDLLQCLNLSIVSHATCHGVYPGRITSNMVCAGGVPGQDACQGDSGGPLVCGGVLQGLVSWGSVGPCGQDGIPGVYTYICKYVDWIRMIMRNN
Description: as §1, §2

Thrombin a = Thrombin a (Homo sapiens, UniProt P00734); test: Serine protease inhibition assay: Thrombin a; settings: control compound, 10-dose 3-fold serial dilution starting at 10 μM or 100 uM
Description: as §1, §2

Hepsin = Hepsin (Homo sapiens, UniProt P05981); test: Serine protease inhibition assay: Hepsin; settings: control compound, 10-dose 3-fold serial dilution starting at 10 μM or 100 uM
Chain of Hepsin (P05981 whole entry): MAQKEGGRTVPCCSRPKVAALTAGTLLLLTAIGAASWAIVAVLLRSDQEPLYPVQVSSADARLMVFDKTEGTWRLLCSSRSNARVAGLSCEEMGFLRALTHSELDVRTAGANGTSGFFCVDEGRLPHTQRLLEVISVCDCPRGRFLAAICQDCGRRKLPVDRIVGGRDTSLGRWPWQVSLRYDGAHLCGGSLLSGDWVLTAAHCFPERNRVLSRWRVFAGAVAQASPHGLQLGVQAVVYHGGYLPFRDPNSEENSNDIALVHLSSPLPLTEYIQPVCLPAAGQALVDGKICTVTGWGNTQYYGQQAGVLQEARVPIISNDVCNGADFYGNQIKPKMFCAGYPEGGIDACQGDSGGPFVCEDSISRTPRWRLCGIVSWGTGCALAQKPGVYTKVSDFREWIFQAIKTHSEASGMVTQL
Description: as §1, §2

trypsin, human pancrease = test: Trypsin inhibition assay; settings: 0.25 nM trypsin, PFR-AMC, 2 hours
Description: Fluorescence intensity was measured every 5 minutes. Gabexate mesylate was used as a positive control, in a dilution series starting at 1 μM. The assay was performed in duplicate.

Granzyme B = Granzyme B (Homo sapiens, UniProt P10144); test: Serine protease inhibition assay: Granzyme B; settings: control compound, 10-dose 3-fold serial dilution starting at 10 μM or 100 uM
Chain of Granzyme B (P10144 21-247, species assumed): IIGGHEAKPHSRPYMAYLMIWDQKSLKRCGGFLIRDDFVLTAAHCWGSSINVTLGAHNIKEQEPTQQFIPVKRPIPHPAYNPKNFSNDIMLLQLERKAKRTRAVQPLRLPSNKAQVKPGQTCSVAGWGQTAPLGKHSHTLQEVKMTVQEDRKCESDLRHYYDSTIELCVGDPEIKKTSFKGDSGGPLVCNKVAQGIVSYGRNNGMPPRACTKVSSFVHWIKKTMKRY
Description: as §1, §2

Kallikrein 1 = Kallikrein 1 (Homo sapiens, UniProt P06870); test: Serine protease inhibition assay: Kallikrein 1; settings: control compound, 10-dose 3-fold serial dilution starting at 10 μM or 100 uM
Chain of Kallikrein 1 (P06870 25-262, species assumed): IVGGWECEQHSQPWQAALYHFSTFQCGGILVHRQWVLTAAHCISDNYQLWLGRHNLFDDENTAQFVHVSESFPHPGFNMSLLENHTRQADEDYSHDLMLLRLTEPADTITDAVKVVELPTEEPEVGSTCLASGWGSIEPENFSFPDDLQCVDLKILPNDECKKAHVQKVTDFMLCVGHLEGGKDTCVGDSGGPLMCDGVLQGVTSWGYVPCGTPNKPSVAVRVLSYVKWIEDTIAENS
Description: as §1, §2

Factor XIIa = target: T4, Factor XIIa (Homo sapiens, UniProt P00748); test: Serine protease inhibition assay: Factor XIIa; settings: control compound, 10-dose 3-fold serial dilution starting at 10 μM or 100 uM
T4 sequence (P00748 373-615 limits assumed): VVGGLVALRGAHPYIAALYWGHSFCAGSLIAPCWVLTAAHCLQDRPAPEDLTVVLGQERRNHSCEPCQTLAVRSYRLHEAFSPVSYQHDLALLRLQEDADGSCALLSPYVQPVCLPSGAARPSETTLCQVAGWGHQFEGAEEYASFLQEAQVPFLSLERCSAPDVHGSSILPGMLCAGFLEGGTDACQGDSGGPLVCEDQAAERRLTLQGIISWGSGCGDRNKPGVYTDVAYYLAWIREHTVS
Description: as §1, §2

Cathepsin G = target: T5, Cathepsin G (Homo sapiens, UniProt P08311); test: Serine protease inhibition assay: Cathepsin G; settings: control compound, 10-dose 3-fold serial dilution starting at 10 μM or 100 uM
T5 sequence (P08311 21-244): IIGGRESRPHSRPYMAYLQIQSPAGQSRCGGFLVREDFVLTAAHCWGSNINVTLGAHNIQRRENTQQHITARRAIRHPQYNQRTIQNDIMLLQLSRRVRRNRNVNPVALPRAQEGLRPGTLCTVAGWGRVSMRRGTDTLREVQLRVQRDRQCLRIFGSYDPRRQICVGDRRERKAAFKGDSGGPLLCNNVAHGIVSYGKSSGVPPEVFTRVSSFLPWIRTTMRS
Description: as §1, §2

Factor VIIa = target: T6, Factor VIIa (Homo sapiens, UniProt P08709); test: Serine protease inhibition assay: Factor VIIa; settings: control compound, 10-dose 3-fold serial dilution starting at 10 μM or 100 uM
T6 sequence (P08709 213-466 limits assumed): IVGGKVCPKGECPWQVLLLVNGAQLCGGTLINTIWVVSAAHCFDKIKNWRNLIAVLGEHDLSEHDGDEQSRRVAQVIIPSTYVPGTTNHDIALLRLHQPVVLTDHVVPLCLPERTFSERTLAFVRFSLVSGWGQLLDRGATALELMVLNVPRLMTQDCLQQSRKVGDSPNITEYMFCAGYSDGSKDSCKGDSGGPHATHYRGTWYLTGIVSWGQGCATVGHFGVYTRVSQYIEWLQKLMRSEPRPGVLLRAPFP
T6 sequence (P08709 61-212 limits assumed): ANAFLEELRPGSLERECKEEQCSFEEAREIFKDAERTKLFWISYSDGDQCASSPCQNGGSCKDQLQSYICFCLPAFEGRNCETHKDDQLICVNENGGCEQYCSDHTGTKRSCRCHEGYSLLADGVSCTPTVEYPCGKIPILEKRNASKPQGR
Description: as §1, §2

Molecule: Gabexate mesylate [Gabexate mesylate (GM)]
- IC50 (Urokinase): 16.5 nM
- IC50 (Kallikrein 2): 139 nM
- IC50 (Matriptase 2): 201 nM
- IC50 (Plasmin): 253 nM
- IC50 (tPA): 1060 nM
- IC50 (Kallikrein 5): 8730 nM
- IC50 (Activated Protein C): 64.8 nM
- IC50 (Kallikrein 12): 32.5 nM
- IC50 (Thrombin a): 837 nM
- IC50 (Hepsin): 51 nM
- IC50 (trypsin, human pancrease; read-out: Compound IC50 (M) Data 1): 2.13e-09 M
- IC50 (trypsin, human pancrease; read-out: Compound IC50 (M) Data 2): 2.33e-09 M

Molecule: CC[C@H](C)[C@H](NC(C)=O)C(=O)N[C@@H](CCC(=O)O)C(=O)N[C@H](C(=O)N[C@H](C=O)CC(=O)O)[C@@H](C)O [IETD-CHO] (Ac-IETD-aldehyde; N-terminus assumed)
- IC50 (Granzyme B): 178 nM

Molecule: CC(=O)N[C@@H](CC(C)C)C(=O)N[C@@H](CC(C)C)C(=O)N[C@H](C=O)CCCNC(=N)N [Leupeptin]
- IC50 (Kallikrein 1): 2990 nM

Molecule: N=C(N)c1ccc2cc(OC(=O)c3ccc(N=C(N)N)cc3)ccc2c1 [Nafamostat mesylate]
- IC50 (Factor XIIa): 23.2 nM

Molecule: CC(C)C[C@H](NC(=O)[C@@H](NC(=O)N[C@@H](Cc1ccccc1)C(=O)O)[C@@H]1CCN=C(N)N1)C(=O)N[C@H](C=O)Cc1ccccc1 [Chymostatin]
- IC50 (Cathepsin G): 4090 nM

Molecule: N=C(N)c1ccc2nc(-c3cc(CC(=O)N[C@@H](CC(=O)O)C(=O)O)cc(-c4cc(S(N)(=O)=O)ccc4O)c3O)[nH]c2c1 [PCI 27483]
- IC50 (Factor VIIa): 141 nM
